The assay addresses T1, Dihydrofolate reductase (Bos taurus, UniProt P00376).
T1 sequence (P00376 whole entry): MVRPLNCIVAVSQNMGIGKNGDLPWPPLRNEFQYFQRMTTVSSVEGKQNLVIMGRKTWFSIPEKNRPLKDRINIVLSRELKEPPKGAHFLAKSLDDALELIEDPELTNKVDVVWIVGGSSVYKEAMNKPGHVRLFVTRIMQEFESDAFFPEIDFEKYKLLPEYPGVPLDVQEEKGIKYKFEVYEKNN
In words: Inhibition of bovine liver DHFR measured for every 1 min of 10 mins.

Each structure is given as a SMILES string. pIC50: −log10 of the molar value.

Regarding `Cc1cc2c(cc1C)NC(c1ccc(Br)cc1)=C1CCC/C(=C\c3ccc(Br)cc3)C1=N2`, the pIC50 was 4.68.

Broadly, the pIC50 is −log10 of the IC50, conventionally taken in molar units. High values mean a low IC50, low ones a high IC50.

(Values after ChEMBL document CHEMBL3112482, “Nonclassical antifolates, part 5. Benzodiazepine analogs as a new class of DHFR inhibitors: synthesis, antitumor testing and molecular modeling study” (Eur J Med Chem, 2014).)
